Test [1] deals with human Adenosine A2a receptor (Homo sapiens (Human), UniProt P29274). Kind of test: Adenosine receptor TR-FRET binding assay (A2a). The note with it: inhibition of binding of 100 nM CA200645, CHO cell membranes. In a few lines:
(§1)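 Terbium-labelled human receptors in CHO cell membranes were incubated 2 h at room temperature with test compounds and fluorescent XAC tracer CA200645 (30 nM for A2b; 100 nM for A1, A2a, A3). TR-FRET 665/620 nm ratio gave specific binding; Ki derived from IC50 by Cheng–Prusoff.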

Test [2] concerns the target human Adenosine A2b receptor (Homo sapiens (Human), UniProt P29275). In words: Adenosine receptor TR-FRET binding assay (A2b). As to conditions: TR-FRET, inhibition of binding of 30 nM CA200645, CHO cell membranes. In a few lines: as §1
On the technique in general: TR-FRET usually uses a lanthanide donor and a delayed reading to cut background.

The target in test [3] is human Adenosine A1 receptor (Homo sapiens (Human), UniProt P30542). Kind of test: Adenosine receptor TR-FRET binding assay (A1). The note with it: inhibition of binding of 100 nM CA200645, CHO cell membranes. A digest of the protocol:
as §1

The target in test [4] is human Adenosine A3 receptor (Homo sapiens (Human), UniProt P0DMS8). In words: Adenosine receptor TR-FRET binding assay (A3). As to conditions: inhibition of binding of 100 nM CA200645, CHO cell membranes. A digest of the protocol:
as §1

Test [5] has as its system CD8+T cells in human whole blood. In words: Measurement of pCREB in CD8+T cells in human whole blood. In kind it is cell-based. As to conditions: 3 μM NECA, rolipram. As to the method: Biological Example—Measurement of pCREB in CD8+T Cells in Human Whole Blood
Heparinised human whole blood was pre-incubated at 37° C. with serial dilutions of A2a antagonists for 20 min. and the phosphodiesterase inhibitor rolipram to amplify the pCREB response. The adenosine receptor agonist NECA is then added at a final concentration of 3 μM and following a 60 min incubation the blood is fixed and red blood cells lysed. White blood cells are isolated, permeabilized and stained with directly conjugated fluorescent antibodies to phospho-CREB (Alexa Fluor 488) and CD8 (Alexa Fluor 647) and the level of phospho-CREB in CD8+T cells is measured by FACS using a BD Accuri C6 Flow Cytometer.

SMILES strings stand for the structures. Where a name gives a salt, the structure may show the parent alone.

human Adenosine A1 receptor, sequence (P30542 whole entry): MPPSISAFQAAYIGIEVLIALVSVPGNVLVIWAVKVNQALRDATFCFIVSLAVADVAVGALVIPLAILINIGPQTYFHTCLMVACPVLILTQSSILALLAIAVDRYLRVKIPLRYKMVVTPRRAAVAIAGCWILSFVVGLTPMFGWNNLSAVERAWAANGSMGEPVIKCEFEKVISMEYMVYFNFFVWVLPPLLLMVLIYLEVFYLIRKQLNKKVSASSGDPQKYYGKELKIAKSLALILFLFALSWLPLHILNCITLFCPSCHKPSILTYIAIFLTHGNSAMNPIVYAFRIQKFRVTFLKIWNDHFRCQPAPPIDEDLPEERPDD
human Adenosine A2a receptor, sequence (P29274 whole entry): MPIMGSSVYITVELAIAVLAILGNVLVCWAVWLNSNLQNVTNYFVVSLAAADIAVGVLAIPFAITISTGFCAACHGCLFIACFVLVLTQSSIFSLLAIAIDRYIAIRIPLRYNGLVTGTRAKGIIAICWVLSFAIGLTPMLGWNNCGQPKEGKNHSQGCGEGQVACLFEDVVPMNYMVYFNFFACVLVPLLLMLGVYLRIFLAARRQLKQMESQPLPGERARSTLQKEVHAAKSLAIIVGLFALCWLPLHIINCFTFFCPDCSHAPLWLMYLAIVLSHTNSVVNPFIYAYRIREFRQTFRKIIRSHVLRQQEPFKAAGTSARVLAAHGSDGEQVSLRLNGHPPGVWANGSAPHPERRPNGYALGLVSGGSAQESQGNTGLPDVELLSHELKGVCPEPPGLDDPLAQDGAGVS
human Adenosine A3 receptor, sequence (P0DMS8 whole entry): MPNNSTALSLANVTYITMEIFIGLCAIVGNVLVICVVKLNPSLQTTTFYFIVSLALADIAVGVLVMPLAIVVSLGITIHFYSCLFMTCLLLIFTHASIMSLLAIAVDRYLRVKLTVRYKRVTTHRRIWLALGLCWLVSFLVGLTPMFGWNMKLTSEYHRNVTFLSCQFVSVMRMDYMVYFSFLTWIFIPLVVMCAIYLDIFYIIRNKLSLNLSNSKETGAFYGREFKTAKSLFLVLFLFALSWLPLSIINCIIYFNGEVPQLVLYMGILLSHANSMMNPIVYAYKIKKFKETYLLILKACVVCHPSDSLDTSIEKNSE
human Adenosine A2b receptor, sequence (P29275 whole entry): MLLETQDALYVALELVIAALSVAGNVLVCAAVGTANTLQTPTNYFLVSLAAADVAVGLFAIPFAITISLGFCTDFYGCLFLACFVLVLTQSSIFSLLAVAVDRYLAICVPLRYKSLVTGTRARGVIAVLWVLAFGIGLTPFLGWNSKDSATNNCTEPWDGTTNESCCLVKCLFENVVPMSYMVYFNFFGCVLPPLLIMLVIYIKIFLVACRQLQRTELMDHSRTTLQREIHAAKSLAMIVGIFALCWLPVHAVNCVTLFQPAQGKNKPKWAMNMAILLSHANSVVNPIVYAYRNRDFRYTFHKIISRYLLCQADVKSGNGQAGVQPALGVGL

Turning to `Cc1cc(-c2sc(NC(=O)N3CC4(COC4)C3)nc2-c2cccc(C#N)c2)cc(CO)n1` [Example 9, N-[4-(3-Cyanophenyl)-5-[2-(hydroxymethyl)-6-methyl-4-pyridyl]thiazol-2-yl]-2-oxa-6-azaspiro[3.3]heptane-6-carboxamide], the Ki was 0.61 nM in test [1], 5.3 nM in test [2], 47 nM in test [3] and 2020 nM in test [4].
Take `Cc1cc(-c2sc(NC(=O)N3CCC4(CCN(C)C4=O)CC3)nc2-c2cccc(C#N)c2)cc(C)n1` [Example 6.77, N-[4-(3-Cyanophenyl)-5-(2,6-dimethyl-4-pyridyl)thiazol-2-yl]-2-methyl-1-oxo-2,8-diazaspiro[4.5]decane-8-carboxamide]: the inhibition constant (Ki) in test [1] was 1.44 nM; in test [2], 5.4 nM; in test [3], 133 nM; in test [4], 193 nM.
With `CC(=O)Nc1cc(-c2sc(NC(=O)N3CC4(COC4)C3)nc2-c2cccc(C#N)c2)cc(C)n1` [Example 19, N-[5-(2-Acetamido-6-methyl-4-pyridyl)-4-(3-cyanophenyl)thiazol-2-yl]-2-oxa-6-azaspiro[3.3]heptane-6-carboxamide], in test [5], it took 290 nM to reach half-maximal inhibition (IC50). For the same compound, the inhibition constant (Ki) in test [1] was found to be 1.86 nM; in test [2], 7.9 nM; in test [3] it was 137 nM.
For `Cc1cc(-c2sc(NC(=O)N3CC(=O)N[C@@H](C)C3)nc2-c2cccc(C#N)c2)cc(C)n1` [Example 6.90, (3S)-N-[4-(3-Cyanophenyl)-5-(2,6-dimethyl-4-pyridyl)thiazol-2-yl]-3-methyl-5-oxo-piperazine-1-carboxamide], the inhibitory constant (Ki) in test [1] was 3.16 nM; in test [2], 10.7 nM; in test [3], 63 nM; in test [4], 106 nM.
Consider `CC(=O)N1C[C@H]2C[C@@H]1CN2C(=O)Nc1nc(-c2cccc(C#N)c2)c(-c2cc(C)nc(C)c2)s1` [Example 6.101, (1R,4R)-5-Acetyl-N-[4-(3-cyanophenyl)-5-(2,6-dimethyl-4-pyridyl)thiazol-2-yl]-2,5-diazabicyclo[2.2.1]heptane-2-carboxamide], for which the Ki worked out at 1.1 nM in test [1], 3 nM in test [2], 30 nM in test [3] and 853 nM in test [4].
The matching figures for `Cc1cc(-c2sc(NC(=O)N3CCN4C(=O)NC(=O)C4C3)nc2-c2cccc(C#N)c2)cc(C)n1` (stereo not drawn) [Example 6.23, N-[4-(3-Cyanophenyl)-5-(2,6-dimethyl-4-pyridyl)thiazol-2-yl]-1,3-dioxo-5,6,8,8a-tetrahydroimidazo[1,5-a]pyrazine-7-carboxamide]: 2.99 nM, 6.5 nM, 92 nM and 394 nM.
As for `Cc1cc(-c2sc(NC(=O)N3CC[S+]([O-])CC3)nc2-c2cccc(C#N)c2)cc(C(F)F)n1` [Example 6.19, N-[4-(3-Cyanophenyl)-5-[2-(difluoromethyl)-6-methyl-4-pyridyl]thiazol-2-yl]-1-oxo-1,4-thiazinane-4-carboxamide], the Ki in test [1] was 0.61 nM; in test [2], 1.1 nM; in test [3], 20 nM; in test [4], 130 nM.
`Cc1cc(-c2sc(NC(=O)N3CCC34COC4)nc2-c2cccc(C#N)c2)cc(C)n1` [Example 6.87, N-[4-(3-Cyanophenyl)-5-(2,6-dimethyl-4-pyridyl)thiazol-2-yl]-6-oxa-1-azaspiro[3.3]heptane-1-carboxamide]: the Ki in test [1] came to 1.75 nM; in test [2], 6.7 nM; in test [3], 57 nM; in test [4], 37 nM.
Consider `CCN1CCN(C(=O)Nc2nc(-c3cccc(C#N)c3)c(-c3cc(C)nc(C)c3)s2)CC1` [Example 6.60, N-[4-(3-Cyanophenyl)-5-(2,6-dimethyl-4-pyridyl)thiazol-2-yl]-4-ethyl-piperazine-1-carboxamide], for which the Ki came to 3.09 nM in test [1], 6.2 nM in test [2], 185 nM in test [3] and 455 nM in test [4].
`Cc1cc(-c2sc(NC(=O)N3CCN(CCO)C(=O)C3)nc2-c2cccc(C#N)c2)cc(C)n1` [Example 4.31, N-[4-(3-Cyanophenyl)-5-(2,6-dimethyl-4-pyridyl)thiazol-2-yl]-4-(2-hydroxyethyl)-3-oxo-piperazine-1-carboxamide]: the Ki in test [1] is 3.75 nM; in test [2], 4.7 nM; in test [3], 210 nM; in test [4], 425 nM.
As for `Cc1cc(-c2sc(NC(=O)N3CCN[C@@H](C(C)(C)O)C3)nc2-c2cccc(C#N)c2)cc(Cl)n1` [Example 3.10], the inhibition constant (Ki) amounted to 8.17 nM in test [1], 12.2 nM in test [2], 135 nM in test [3] and 144 nM in test [4].
For `Cc1cc(-c2sc(NC(=O)N3CCN[C@@H](C(=O)O)C3)nc2-c2cccc(C#N)c2)cc(Cl)n1` [Example 5, (2R)-4-[[5-(2-Chloro-6-methyl-4-pyridyl)-4-(3-cyanophenyl)thiazol-2-yl]carbamoyl]piperazine-2-carboxylic acid], the inhibitory constant (Ki) in test [1] was 5.75 nM; in test [2], 5.5 nM; in test [3], 601 nM; in test [4], 696 nM.
The matching figures for `Cc1cc(-c2sc(NC(=O)N3CCC4(CC3)C(=O)N(C)C(=O)N4C)nc2-c2cccc(C#N)c2)cc(CO)n1` [Example 9.5]: 2.28 nM, 7.5 nM, 174 nM and 699 nM.
As to `Cc1cc(-c2sc(NC(=O)N3CCC(C(=O)NCCO)CC3)nc2-c2cccc(C#N)c2)cc(C)n1` [Example 6.33, N1-[4-(3-Cyanophenyl)-5-(2,6-dimethyl-4-pyridyl)thiazol-2-yl]-N4-(2-hydroxyethyl)piperidine-1,4-dicarboxamide], the Ki in test [1] came out at 3.65 nM; in test [2], 3.6 nM; in test [3], 51 nM; in test [4], 268 nM.
As to `Cc1cc(-c2sc(NC(=O)N3CCC(N4CCOCC4)C3)nc2-c2cccc(C#N)c2)cc(C)n1` (stereo not drawn) [Example 6.84, N-[4-(3-Cyanophenyl)-5-(2,6-dimethyl-4-pyridyl)thiazol-2-yl]-3-morpholino-pyrrolidine-1-carboxamide hemi formate salt], the inhibitory constant (Ki) in test [1] worked out at 4.46 nM; in test [2], 8.4 nM; in test [3] it was 216 nM; in test [4] it was 568 nM.
The matching figures for `Cc1cc(-c2sc(NC(=O)N3CCC(S(C)(=O)=O)CC3)nc2-c2cccc(C#N)c2)cc(C)n1` [Example 6.95, N-[4-(3-Cyanophenyl)-5-(2,6-dimethyl-4-pyridyl)thiazol-2-yl]-4-methylsulfonyl-piperidine-1-carboxamide]: 1.05 nM, 4.6 nM, 29 nM and 560 nM.
As for `COc1cc(-c2sc(NC(=O)N3CC[S+]([O-])CC3)nc2-c2cccc(C#N)c2)cc(C)n1` [Example 16.3], the Ki is 5.71 nM in test [1], 6.2 nM in test [2], 82 nM in test [3] and 383 nM in test [4].
`Cc1cc(-c2sc(NC(=O)N3CC4(COC4)C3)nc2-c2cccc(C#N)c2)cc([C@@H](C)O)n1` (single isomer, unassigned) [Example 12.3b, N-[4-(3-Cyanophenyl)-5-[2-[(1R)-1-hydroxyethyl]-6-methyl-4-pyridyl]thiazol-2-yl]-2-oxa-6-azaspiro[3.3]heptane-6-carboxamide or N-[4-(3-cyanophenyl)-5-[2-[(1S)-1-hydroxyethyl]-6-methyl-4-pyridyl]thiazol-2-yl]-2-oxa-6-azaspiro[3.3]heptane-6-carboxamide] returned a concentration for half-maximal inhibition (IC50) in test [5] of 10 nM. The inhibition constant Ki in test [1] turned out to be 0.42 nM; in test [2], 1.2 nM; in test [3], 19 nM.
With `Cc1cc(-c2sc(NC(=O)N3C[C@H]4COC[C@H]4C3)nc2-c2cccc(C#N)c2)cc(C)n1` [Example 6.49, (3aR,6aS)-N-[4-(3-Cyanophenyl)-5-(2,6-dimethyl-4-pyridyl)thiazol-2-yl]-1,3,3a,4,6,6a-hexahydrofuro[3,4-c]pyrrole-5-carboxamide], the inhibition constant (Ki) is 1.27 nM in test [1], 2.2 nM in test [2], 51 nM in test [3] and 324 nM in test [4].
Turning to `Cc1cc(-c2sc(NC(=O)N3C[C@@H]4CNC(=O)[C@@H]4C3)nc2-c2cccc(C#N)c2)cc(C)n1` [Example 6.52, (3aS,6aS)-N-[4-(3-Cyanophenyl)-5-(2,6-dimethyl-4-pyridyl)thiazol-2-yl]-3-oxo-1,2,3a,4,6,6a-hexahydropyrrolo[3,4-c]pyrrole-5-carboxamide], the inhibitory constant (Ki) is 4.3 nM in test [1], 8.6 nM in test [2], 120 nM in test [3] and 238 nM in test [4].
As for `Cc1cc(-c2sc(NC(=O)N3CC(=O)N4CCCCC4C3)nc2-c2cccc(C#N)c2)cc(C)n1` (stereo not drawn) [Example 6.15, N-[4-(3-Cyanophenyl)-5-(2,6-dimethyl-4-pyridyl)thiazol-2-yl]-4-oxo-3,6,7,8,9,9a-hexahydro-1H-pyrido[1,2-a]pyrazine-2-carboxamide], the inhibition constant Ki in test [1] is 2.02 nM; in test [2], 5.9 nM; in test [3], 263 nM; in test [4] it was 259 nM.

As usually defined, the Ki is the dissociation constant of the complex between target and ligand, obtained from inhibition or displacement. A word on the IC50: it is the concentration needed to halve the response being measured.
